In one assay the test system is DLD1-WRN-KO cells. Nature of the assay: Proliferation assay DLD1-WRN-KO (CellTiterGlo, 96 hours), off-target effects. The format is cell-based. The note with it: Homo sapiens. Put shortly:
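Cells in RPMI-1640/10% FCS were seeded overnight (SW48 2'000, DLD1-WRN-KO 1'500 cells/well), then exposed to eight 3-fold compound dilutions at 0.1% DMSO. ATP luminescence relative to a day-0 plate gives % growth (0% stasis, −100% complete kill). GI50 is the geometric mean of ≥2 independent replicates.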
In general terms: ATP-based viability assays read luminescence as a measure of living cells.

Assay [1] concerns SW48 colorectal xenografts. Nature of the assay: Efficacy against subcutaneous SW48 colorectal xenografts. The format is in vivo, Crl:NU(NCr)-Foxn1nu nude mice. The note with it: for % T/C / maximal regression: amorphous sodium salt; for anti-tumor effect / relapse while on treatment: p.o. qd; for anti-tumor effect: all dose levels of the study; for relapse while on treatment: time of relapse dose dependent. The protocol: Experiments were performed in female Crl:NU(NCr)-Foxn1^nu-homozygous nude mice (Charles River). Animals were housed under Optimized Hygienic Conditions in Allentown XJ cages (IVC, max. 6 mice per cage) with food and water at libitum and a 12 h:12 h light:dark cycle. Animals were allowed to acclimatize for at least 1 week before being enrolled in the experimental design. The study described here was performed according to license 1975 approved by the Basel Cantonal Veterinary Office.
Tumors were established by subcutaneous inoculation of human colorectal cancer SW48 cells (5×10^6 cells/animal in 100 μL in HBSS). SW48 human colorectal cancer cells were obtained from ATCC. The cells were cultured in RPMI-1640 medium (BioConcept Ltd., #1-41F01-1) supplemented with 10% FCS (Bio Concept #2-01F30-1), 2 mM L-glutamine (BioConcept Ltd., #5-10K50-H), 1 mM sodium pyruvate (Bio Concept #5-60F00-H) and 10 mM HEPES (Bio Concept #5-31F00-H) at 37° C. in an atmosphere of 5% CO2 in air. To establish SW48 xenografts cells were harvested and re-suspended in HBSS (Sigma, #H6648) before injecting subcutaneously 100 μL containing 5 million cells in the right flank of animals which were anaesthetized with isoflurane. Tumor size, in mm^3, was calculated following the formula: (L×W2×π/6); where W=width and L=length of the tumor. As a measure of efficacy the % T/C value is calculated at the end of the experiment according to:
Tumor regression was calculated according to: […]
Where Δtumor volumes represent the mean tumor volume on the evaluation day minus the mean tumor volume at the start of the experiment.
Amorphous sodium salt of test compound (corrected by salt factor) was dissolved in an aqueous 20% w/v solution of 2-hydroxypropyl-beta-cyclodextrin (HPBCD). A range of concentrations was prepared by serial dilution starting from the solution at highest concentration for the highest dose in the study.
Treatment was initiated about two weeks post tumor cell inoculation, when the xenografts had reached a mean volume of approximately 200 mm^3. The tumor bearing animals were randomized based on tumor volumes into experimental groups with 6 animals per group and treatment was initiated. Compounds were dosed orally (p.o.) once per day (qd) at 1, 3, 5 or 10 mg/kg (Example 18A) and at 0.1, 0.3, 1, 3 mg/kg (Example 21A). In addition, a control group treated once per day with vehicle (20% 2-hydroxypropyl-β-cyclodextrin) was included in each study. Tumor volumes and body weights were measured two times per week until the study termination.

For `Cc1ncnc(C(=O)N2CCN(c3c4n(c5nc(C6=CCOCC6)nn5c3=O)[C@@H](C(=O)Nc3ccc(C(F)(F)F)cc3Cl)C[C@H]4C)C[C@H]2C)c1O` [Example 18A, (7R,9R)—N-(2-chloro-4-(trifluoromethyl)phenyl)-2-(3,6-dihydro-2H-pyran-4-yl)-6-((R)-4-(5-hydroxy-6-methylpyrimidine-4-carbonyl)-3-methylpiperazin-1-yl)-7-methyl-5-oxo-5,7,8,9-tetrahydropyrrolo[1,2-c][1,2,4]triazolo[1,5-a]pyrimidine-9-carboxamide], in the assay on DLD1-WRN-KO cells, the GI50 was above 50 µM. Further, the “% T/C” value in assay [1] (1 mg/kg p.o. qd, day 32 of the study (fourteenth day of treatment)) is 22%. The maximal regression in assay [1] (3 mg/kg p.o. qd, day 49 of the study (thirty first day of treatment)) is 71%; in assay [1] (5 mg/kg p.o. qd, day 49 (thirty first day of treatment)) it was 83%; in assay [1] (10 mg/kg p.o. qd, day 63 (forty fifth day of treatment)) it was 91%. Moreover, the anti-tumor effect result in assay [1] is given as “Dose dependent anti-tumor effect was observed”. For the same compound, the “relapse while on treatment” value in assay [1] is given as “Relapse was observed for all treatment groups”.

`Cc1ncnc(C(=O)N2CCN(c3c4n(c5nc(C6=CCOCC6)nn5c3=O)[C@@H](C(=O)Nc3ccc(C(F)(F)F)cc3Cl)C[C@H]4C)[C@H]3CC[C@@H]32)c1O` [Example 21A, (7R,9R)—N-(2-chloro-4-(trifluoromethyl)phenyl)-2-(3,6-dihydro-2H-pyran-4-yl)-6-((1S,6S)-5-(5-hydroxy-6-methylpyrimidine-4-carbonyl)-2,5-diazabicyclo[4.2.0]octan-2-yl)-7-methyl-5-oxo-5,7,8,9-tetrahydropyrrolo[1,2-c][1,2,4]triazolo[1,5-a]pyrimidine-9-carboxamide] displayed a GI50 with DLD1-WRN-KO cells above 50 µM. The “% T/C” value in assay [1] (0.1 mg/kg p.o. qd, day 25 throughout 29th day of the study (tenth to fourteenth day of treatment)) was determined as 50%; in assay [1] (0.3 mg/kg p.o. qd, day 29 of the study (fourteenth day of treatment), initial stasis followed by regrowth), 0%. Moreover, the maximal regression in assay [1] (1 mg/kg p.o. qd, day 52 of the study (thirty seventh day of treatment)) came to 75%; in assay [1] (3 mg/kg p.o. qd, day 85 (seventieth day of the treatment)) it was 99%. The anti-tumor effect result in assay [1] is given as “Dose dependent anti-tumor effect was observed”. Further, in assay [1], the “relapse while on treatment” value was “no relapse was observed in three animals treated at 1 mg/kg and in entire group treated at 3 mg/kg”.

As usually defined, the GI50 is the concentration that inhibits growth by half.

The record behind these values is patent US20240245694A1, “Tricyclic Compounds and their Uses” (Novartis AG, priority 2022, published 2024).
